Assay results published in patent US8030354B2, “Substituted biphenyl GPR40 modulators” (Amgen Inc., priority 2007, dated 2011).

Key:
[1] = molecular target: T1, GPR40 (Homo sapiens, UniProt O14842); assay: Cell-based aequorin assay (CHO cells stably expressing GPR40 and aequorin); set-up: expressed in transfected cells; host or cells: CHO cells stably transfected with GPR40 and aequorin; details: activation of human GPR40, CHO cells, 0.01% HSA
Method in brief: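 CHO cells stably co-expressing GPR40 and aequorin, loaded with coelenterazine (1 ug/mL, 2 h, room temperature) in H/HBSS with 20 mM Hepes and 0.01% fatty acid-free HSA. Serially diluted compounds added; luminescence recorded over 20 s. EC50 from dose-response of maximum relative light units.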

[2] = molecular target: T1, GPR40; assay: Inositol phosphate accumulation assay (A9_GPR40 cells); type: cell-based; set-up: expressed in transfected cells; host or cells: CHO cells stably transfected with GPR40 and aequorin; details: inositol phosphate assay, A9_GPR40 cells, 1 hour; read-out: IP3 EC50
Method in brief: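 [^3H] inositol phosphate accumulation was measured by SPA after 1 h compound exposure at 37° C in HBSS/10 mM LiCl containing HSA, ending with a 20 mM formic acid quench. The GPR40-transfected A9 cells had first been labelled overnight (16 h) with 1 μCi/mL ^3H-inositol.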

T1 sequence (O14842 whole entry): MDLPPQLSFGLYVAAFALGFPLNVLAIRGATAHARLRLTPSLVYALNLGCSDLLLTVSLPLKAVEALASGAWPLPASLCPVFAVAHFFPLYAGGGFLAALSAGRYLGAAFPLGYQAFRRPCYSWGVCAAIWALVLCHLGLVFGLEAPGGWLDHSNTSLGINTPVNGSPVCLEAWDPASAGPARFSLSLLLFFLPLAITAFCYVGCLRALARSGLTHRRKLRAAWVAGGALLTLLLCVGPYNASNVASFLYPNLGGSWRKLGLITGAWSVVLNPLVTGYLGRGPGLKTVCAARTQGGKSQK

SMILES	EC50 [1] [nM]	EC50 [2] [nM]
COCCO[C@H](c1cc(COc2cccc([C@@H](CC(=O)O)C3CC3)c2F)ccc1-c1ccccc1F)C(C)(C)C (single isomer, unassigned) [Example 83.11]	100 to 1000	10 to 100
COc1cc(-c2ccc(COc3cccc([C@@H](CC(=O)O)C4CC4)c3F)cc2[C@H]2CCCC2(C)C)c(F)cn1 (single isomer, unassigned) [Example 83.4]	10 to 100	< 10
C=C(C)[C@H](CC(=O)O)c1cccc(OCc2ccc(-c3cccc(OC)c3)c(C(C)(C)C)c2)c1 (single isomer, unassigned) [Example 56, (3S)-3-(3-(((2-(1,1-Dimethylethyl)-3′-(methyloxy)-1,1′-biphenyl-4-yl)methyl)oxy)phenyl)-4-methyl-4-pentenoic acid or (3R)-3-(3-(((2-(1,1-dimethylethyl)-3′-(methyloxy)-1,1′-biphenyl-4-yl)methyl)oxy)phenyl)-4-methyl-4-pentenoic acid]	100 to 1000	100 to 1000
CCC(CC(=O)O)c1cccc(NCc2ccc(-c3cc(OC)ccc3F)c(C3=CCCC3(C)C)c2)c1 (single isomer, unassigned) [Example 81, (3R)-3-(3-(((2-(5,5-Dimethyl-1-cyclopenten-1-yl)-2′-fluoro-5′-(methyloxy)-1,1′-biphenyl-4-yl)methyl)amino)phenyl)pentanoic acid or (3S)-3-(3-(((2-(5,5-dimethyl-1-cyclopenten-1-yl)-2′-fluoro-5′-(methyloxy)-1,1′-biphenyl-4-yl)methyl)amino)phenyl)pentanoic acid]	100 to 1000	> 10000
COc1ccc(F)c(-c2ccc(COc3cccc([C@@H](CC(=O)O)[C@@H]4C[C@H]4C)c3)cc2C2=CCCC2(C)C)c1 (single isomer, unassigned) [Example 93.2]	100 to 1000	10 to 100
CCC(CC(=O)O)c1cc(OCc2ccc(-c3cc(OC)ccc3F)c(C3CCCC3(C)C)c2)ccc1F (single isomer, unassigned) [Example 76.3]	100 to 1000	10 to 100
COc1ccc(F)c(-c2ccc(COc3cccc([C@@H](CC(=O)O)CC4CC4)c3)cc2C(O)(C(C)C)C(C)C)c1 (single isomer, unassigned) [Example 69.19, (3R)-4-Cyclopropyl-3-(3-(((2′-fluoro-2-(1-hydroxy-2-methyl-1-(1-methylethyl)propyl)-5′-(methyloxy)-1,1′-biphenyl-4-yl)methyl)oxy)phenyl)butanoic acid or (3S)-4-cyclopropyl-3-(3-(((2′-fluoro-2-(1-hydroxy-2-methyl-1-(1-methylethyl)propyl)-5′-(methyloxy)-1,1′-biphenyl-4-yl)methyl)oxy)phenyl)butanoic acid]	100 to 1000	100 to 1000
COc1cccc(-c2ccc(COc3cccc(CCC(=O)O)c3)cc2OC(F)(F)F)c1 [Example 37, 3-[3-(3′-Methoxy-2-trifluoromethoxy-biphenyl-4-ylmethoxy)-phenyl]-propionic acid]	100 to 1000	> 1000
CC[C@H](CC(=O)O)c1ccc(C)c(OCc2ccc(-c3cc(OC)ccc3F)c(C(C)(C)C)c2)c1 (single isomer, unassigned) [Example 87]	100 to 1000	100 to 1000
COc1ccc(F)c(-c2ccc(COc3cccc(C(CC(=O)O)CC4CC4)c3F)cc2C(F)C(C)(C)C)c1 (single isomer, unassigned) [Example 84.7]	10 to 100	< 10
COc1cc(-c2ccc(COc3cccc(C(CC(=O)O)C4CC4)c3)cc2C2=CCCC2(C)C)ccn1 (single isomer, unassigned) [Example 66.66, (3S)-3-(3-(3-(5,5-Dimethylcyclopent-1-enyl)-4-(2-methoxypyridin-4-yl)benzyloxy)phenyl)-3-cyclopropylpropanoic acid or (3R)-3-(3-(3-(5,5-dimethylcyclopent-1-enyl)-4-(2-methoxypyridin-4-yl)benzyloxy)phenyl)-3-cyclopropylpropanoic acid]	100 to 1000	10 to 100
C=CC(C)(C)[C@H](OC)c1cc(COc2cccc([C@H](CCC)CC(=O)O)c2)ccc1-c1cc(OC)ccc1F (single isomer, unassigned) [Example 67.24]	100 to 1000	10 to 100
COc1ccc(F)c(-c2ccc(COc3cccc([C@@H](CC(=O)O)C4CCC4)c3)cc2[C@@H]2CCCC2(C)C)c1 (single isomer, unassigned) [Example 79.4]	10 to 100	< 10
COc1ccc(F)c(-c2ccc(COc3cc(CCC(=O)O)ccn3)cc2C2=CCCC2(C)C)c1 [Example 95, 3-(2-(((2-(5,5-Dimethyl-1-cyclopenten-1-yl)-2′-fluoro-5′-(methyloxy)-1,1′-biphenyl-4-yl)methyl)oxy)-4-pyridinyl)propanoic acid]	100 to 1000	100 to 1000
COc1ccc(F)c(-c2ccc(COc3cccc([C@@H](CC(=O)O)C4CC4)c3)cc2[C@H]2CCC[C@@H]2C)c1 (single isomer, unassigned) [Example 66.56]	100 to 1000	10 to 100
COc1ccc(F)c(-c2ccc(COc3cccc([C@H](CC(=O)O)C4CC4)c3)cc2[C@@H]2CCCC2(C)C)c1 (single isomer, unassigned) [Example 97.3]	100 to 1000	10 to 100
COc1cccc(-c2ccc(COc3cccc(C(CC(=O)O)C4CC4)c3)cc2C2CCCCCC2)c1 (single isomer, unassigned) [Example 66.9, (3S)-3-(3-(((2-Cycloheptyl-3′-(methyloxy)-1,1′-biphenyl-4-yl)methyl)oxy)phenyl)-3-cyclopropylpropanoic acid or (3R)-3-(3-(((2-cycloheptyl-3′-(methyloxy)-1,1′-biphenyl-4-yl)methyl)oxy)phenyl)-3-cyclopropylpropanoic acid]	100 to 1000	10 to 100
COc1cc(-c2ccc(COc3cc(F)cc(C(CC(=O)O)CC4CC4)c3)cc2C2CCCC2(C)C)c(F)cn1 (single isomer, unassigned) [Example 89.4]	100 to 1000	< 10
COc1cc(-c2ccc(COc3cccc(C(C)(C)CC(=O)O)c3)cc2C(OC)C(C)(C)C)c(F)cn1 (single isomer, unassigned) [Example 85.6, 3-(3-(((3-((1S)-2,2-Dimethyl-1-(methyloxy)propyl)-4-(5-fluoro-2-(methyloxy)-4-pyridinyl)phenyl)methyl)oxy)phenyl)-3-methylbutanoic acid or 3-(3-(((3-((1R)-2,2-dimethyl-1-(methyloxy)propyl)-4-(5-fluoro-2-(methyloxy)-4-pyridinyl)phenyl)methyl)oxy)phenyl)-3-methylbutanoic acid]	100 to 1000	10 to 100
CC[C@H](CC(=O)O)c1cccc(OCc2ccc(-c3cc(OC)ccc3F)c(C(C)(C)C)c2)c1 (single isomer, unassigned) [Example 17, (3R)-3-(3-(((2-(1,1-Dimethylethyl)-2′-fluoro-5′-(methyloxy)-1,1′-biphenyl-4-yl)methyl)oxy)phenyl)pentanoic acid or (3S)-3-(3-(((2-(1,1-dimethylethyl)-2′-fluoro-5′-(methyloxy)-1,1′-biphenyl-4-yl)methyl)oxy)phenyl)pentanoic acid]	100 to 1000	100 to 1000
COc1ccc(F)c(-c2ccc(COc3cccc(C(C)CC(=O)O)c3)cc2C2=CCCCCC2)c1 (single isomer, unassigned) [Example 64.12, (3R)-3-(3-(((2-(1-Cyclohepten-1-yl)-2′-fluoro-5′-(methyloxy)-1,1′-biphenyl-4-yl)methyl)oxy)phenyl)butanoic acid or (3S)-3-(3-(((2-(1-cyclohepten-1-yl)-2′-fluoro-5′-(methyloxy)-1,1′-biphenyl-4-yl)methyl)oxy)phenyl)butanoic acid]	100 to 1000	10 to 100
COc1ccc(F)c(-c2cc(F)c(COc3cccc([C@@H](CC(=O)O)C4CC4)c3)cc2C2=CCCC2(C)C)c1 (single isomer, unassigned) [Example 66.43, (3S)-3-Cyclopropyl-3-(3-(((2-(5,5-dimethyl-1-cyclopenten-1-yl)-2′,5-difluoro-5′-(methyloxy)-1,1′-biphenyl-4-yl)methyl)oxy)phenyl)propanoic acid or (3R)-3-cyclopropyl-3-(3-(((2-(5,5-dimethyl-1-cyclopenten-1-yl)-2′,5-difluoro-5′-(methyloxy)-1,1′-biphenyl-4-yl)methyl)oxy)phenyl)propanoic acid]	100 to 1000	< 10
CC1(C)CCC[C@@H]1c1cc(COc2cccc([C@@H](CC(=O)O)C3CC3)c2F)ccc1-c1cc(C(F)F)ccc1F (single isomer, unassigned) [Example 83.3]	100 to 1000	10 to 100
COc1ccc(F)c(-c2ccc(COc3cccc(C(C)CC(=O)O)c3)cc2C2(C)CC2)c1 (single isomer, unassigned) [Example 64.18, (3R)-3-(3-(((2′-Fluoro-2-(1-methylcyclopropyl)-5′-(methyloxy)-1,1′-biphenyl-4-yl)methyl)oxy)phenyl)butanoic acid or (3S)-3-(3-(((2′-fluoro-2-(1-methylcyclopropyl)-5′-(methyloxy)-1,1′-biphenyl-4-yl)methyl)oxy)phenyl)butanoic acid]	100 to 1000	100 to 1000
CCOc1ccc(F)c(-c2ccc(COc3cccc([C@@H](CC(=O)O)C4CC4)c3)cc2[C@@H]2CCCC2(C)C)c1 (single isomer, unassigned) [Example 66.25]	1000 to 10000	1000 to 10000
